Measured values published in ChEMBL document CHEMBL4665624, “Synthesis of 5-(4-(1H-phenanthro[9,10-d]imidazol-2-yl)benzylidene)thiazolidine-2,4-dione as promising DNA and serum albumin-binding agents and evaluation of antitumor activity” (Eur J Med Chem, 2019).

Test system: SN12C
Experiment: Antitumor activity against human SN12C cells assessed as cell growth inhibition at 10 uM incubated for 48 hrs by sulforhodamine B assay
Format: functional
Conditions: read-out: GI

Row | SMILES | inhibition of growth at 10 µM
1 | CCN(CC)c1ccc(-c2nc3c4ccccc4c4ccccc4c3[nH]2)c(O)c1 | < 10%

Test system: MDA-MB-468
Experiment: Antitumor activity against human MDA-MB-468 cells assessed as cell growth inhibition at 10 uM incubated for 48 hrs by sulforhodamine B assay
Format: functional
Conditions: read-out: GI

Row | SMILES | inhibition of growth at 10 µM
2 | CCN(CC)c1ccc(-c2nc3c4ccccc4c4ccccc4c3[nH]2)c(O)c1 | < 10%

Test system: OVCAR-3
Experiment: Antitumor activity against human OVCAR-3 cells assessed as cell growth inhibition at 10 uM incubated for 48 hrs by sulforhodamine B assay
Format: functional
Conditions: read-out: GI

Row | SMILES | inhibition of growth at 10 µM
3 | CCN(CC)c1ccc(-c2nc3c4ccccc4c4ccccc4c3[nH]2)c(O)c1 | < 10%

Test system: NCI/ADR-RES
Experiment: Antitumor activity against human NCI/ADR-RES cells assessed as cell growth inhibition at 10 uM incubated for 48 hrs by sulforhodamine B assay
Format: functional
Conditions: read-out: GI

Row | SMILES | inhibition of growth at 10 µM
4 | CCN(CC)c1ccc(-c2nc3c4ccccc4c4ccccc4c3[nH]2)c(O)c1 | < 10%

Test system: U-251
Experiment: Antitumor activity against human U251 cells assessed as cell growth inhibition at 10 uM incubated for 48 hrs by sulforhodamine B assay
Format: functional
Conditions: read-out: GI

Row | SMILES | inhibition of growth at 10 µM
5 | CCN(CC)c1ccc(-c2nc3c4ccccc4c4ccccc4c3[nH]2)c(O)c1 | < 10%

Test system: HCT-15
Experiment: Antitumor activity against human HCT15 cells assessed as cell growth inhibition at 10 uM incubated for 48 hrs by sulforhodamine B assay
Format: functional
Conditions: read-out: GI

Row | SMILES | inhibition of growth at 10 µM
6 | CCN(CC)c1ccc(-c2nc3c4ccccc4c4ccccc4c3[nH]2)c(O)c1 | 13.8%

Test system: UACC-62
Experiment: Antitumor activity against human UACC-62 cells assessed as cell growth inhibition at 10 uM incubated for 48 hrs by sulforhodamine B assay
Format: functional
Conditions: read-out: GI

Row | SMILES | inhibition of growth at 10 µM
7 | CCN(CC)c1ccc(-c2nc3c4ccccc4c4ccccc4c3[nH]2)c(O)c1 | 20.1%

Test system: OVCAR-4
Experiment: Antitumor activity against human OVCAR-4 cells assessed as cell growth inhibition at 10 uM incubated for 48 hrs by sulforhodamine B assay
Format: functional
Conditions: read-out: GI

Row | SMILES | inhibition of growth at 10 µM
8 | CCN(CC)c1ccc(-c2nc3c4ccccc4c4ccccc4c3[nH]2)c(O)c1 | < 10%

Test system: Hs-578T
Experiment: Antitumor activity against human HS 578T cells assessed as cell growth inhibition at 10 uM incubated for 48 hrs by sulforhodamine B assay
Format: functional
Conditions: read-out: GI

Row | SMILES | inhibition of growth at 10 µM
9 | CCN(CC)c1ccc(-c2nc3c4ccccc4c4ccccc4c3[nH]2)c(O)c1 | < 10%

Test system: HOP-92
Experiment: Antitumor activity against human HOP92 cells assessed as cell growth inhibition at 10 uM incubated for 48 hrs by sulforhodamine B assay
Format: functional
Conditions: read-out: GI

Row | SMILES | inhibition of growth at 10 µM
10 | CCN(CC)c1ccc(-c2nc3c4ccccc4c4ccccc4c3[nH]2)c(O)c1 | 24.2%

Test system: BT-549
Experiment: Antitumor activity against human BT-549 cells assessed as cell growth inhibition at 10 uM incubated for 48 hrs by sulforhodamine B assay
Format: functional
Conditions: read-out: GI

Row | SMILES | inhibition of growth at 10 µM
11 | CCN(CC)c1ccc(-c2nc3c4ccccc4c4ccccc4c3[nH]2)c(O)c1 | < 10%

Test system: Malme-3M
Experiment: Antitumor activity against human MALME-3M cells assessed as cell growth inhibition at 10 uM incubated for 48 hrs by sulforhodamine B assay
Format: functional
Conditions: read-out: GI

Row | SMILES | inhibition of growth at 10 µM
12 | CCN(CC)c1ccc(-c2nc3c4ccccc4c4ccccc4c3[nH]2)c(O)c1 | < 10%

Test system: SNB-19
Experiment: Antitumor activity against human SNB-19 cells assessed as cell growth inhibition at 10 uM incubated for 48 hrs by sulforhodamine B assay
Format: functional
Conditions: read-out: GI

Row | SMILES | inhibition of growth at 10 µM
13 | CCN(CC)c1ccc(-c2nc3c4ccccc4c4ccccc4c3[nH]2)c(O)c1 | < 10%

Test system: HT-29
Experiment: Antitumor activity against human HT-29 cells assessed as cell growth inhibition at 10 uM incubated for 48 hrs by sulforhodamine B assay
Format: functional
Conditions: read-out: GI

Row | SMILES | inhibition of growth at 10 µM
14 | CCN(CC)c1ccc(-c2nc3c4ccccc4c4ccccc4c3[nH]2)c(O)c1 | < 10%

Test system: MDA-MB-231
Experiment: Antitumor activity against human MDA-MB-231/ATCC cells assessed as cell growth inhibition at 10 uM incubated for 48 hrs by sulforhodamine B assay
Format: functional
Conditions: read-out: GI

Row | SMILES | inhibition of growth at 10 µM
15 | CCN(CC)c1ccc(-c2nc3c4ccccc4c4ccccc4c3[nH]2)c(O)c1 | 19.4%

Test system: IGROV-1
Experiment: Antitumor activity against human IGROV1 cells assessed as cell growth inhibition at 10 uM incubated for 48 hrs by sulforhodamine B assay
Format: functional
Conditions: read-out: GI

Row | SMILES | inhibition of growth at 10 µM
16 | CCN(CC)c1ccc(-c2nc3c4ccccc4c4ccccc4c3[nH]2)c(O)c1 | < 10%

Test system: OVCAR-8
Experiment: Antitumor activity against human OVCAR-8 cells assessed as cell growth inhibition at 10 uM incubated for 48 hrs by sulforhodamine B assay
Format: functional
Conditions: read-out: GI

Row | SMILES | inhibition of growth at 10 µM
17 | CCN(CC)c1ccc(-c2nc3c4ccccc4c4ccccc4c3[nH]2)c(O)c1 | < 10%

Test system: NCI-H226
Experiment: Antitumor activity against human NCI-H226 assessed as cell growth inhibition at 10 uM incubated for 48 hrs by sulforhodamine B assay
Format: functional
Conditions: read-out: GI

Row | SMILES | inhibition of growth at 10 µM
18 | CCN(CC)c1ccc(-c2nc3c4ccccc4c4ccccc4c3[nH]2)c(O)c1 | < 10%

Test system: COLO 205
Experiment: Antitumor activity against human COLO205 cells assessed as cell growth inhibition at 10 uM incubated for 48 hrs by sulforhodamine B assay
Format: functional
Conditions: read-out: GI

Row | SMILES | inhibition of growth at 10 µM
19 | CCN(CC)c1ccc(-c2nc3c4ccccc4c4ccccc4c3[nH]2)c(O)c1 | < 10%

Test system: CCRF-CEM
Experiment: Antitumor activity against human CCRF-CEM cells assessed as cell growth inhibition at 10 uM incubated for 48 hrs by sulforhodamine B assay
Format: functional
Conditions: read-out: GI

Row | SMILES | inhibition of growth at 10 µM
20 | CCN(CC)c1ccc(-c2nc3c4ccccc4c4ccccc4c3[nH]2)c(O)c1 | < 10%

Test system: HCT-116
Experiment: Antitumor activity against human HCT116 cells assessed as cell growth inhibition at 10 uM incubated for 48 hrs by sulforhodamine B assay
Format: functional
Conditions: read-out: GI

Row | SMILES | inhibition of growth at 10 µM
21 | CCN(CC)c1ccc(-c2nc3c4ccccc4c4ccccc4c3[nH]2)c(O)c1 | < 10%

Test system: M14
Experiment: Antitumor activity against human M14 cells assessed as cell growth inhibition at 10 uM incubated for 48 hrs by sulforhodamine B assay
Format: functional
Conditions: read-out: GI

Row | SMILES | inhibition of growth at 10 µM
22 | CCN(CC)c1ccc(-c2nc3c4ccccc4c4ccccc4c3[nH]2)c(O)c1 | < 10%

Test system: EKVX
Experiment: Antitumor activity against human EKVX cells assessed as cell growth inhibition at 10 uM incubated for 48 hrs by sulforhodamine B assay
Format: functional
Conditions: read-out: GI

Row | SMILES | inhibition of growth at 10 µM
23 | CCN(CC)c1ccc(-c2nc3c4ccccc4c4ccccc4c3[nH]2)c(O)c1 | 18.2%

Test system: 786-0
Experiment: Antitumor activity against human 786-0 cells assessed as cell growth inhibition at 10 uM incubated for 48 hrs by sulforhodamine B assay
Format: functional
Conditions: read-out: GI

Row | SMILES | inhibition of growth at 10 µM
24 | CCN(CC)c1ccc(-c2nc3c4ccccc4c4ccccc4c3[nH]2)c(O)c1 | < 10%
